Assay [1] has as its system methicillin-sensitive Staphylococcus aureus. The experiment in a line: MIC by broth micro-dilution (CLSI), methicillin-sensitive S. aureus. It is filed as cell-based. The following applies: Staphylococcus aureus, ATCC 29213 / MSSA, MSSA S. aureus ATCC29213; read-out: MIC. A general note: Broth dilution looks for growth in wells or tubes with falling amounts of substance.

The test system of assay [2] is carbapenem sensitive Escherichia coli. The experiment in a line: MIC by broth micro-dilution (CLSI), carbapenem sensitive E. coli. It is filed as cell-based. The following applies: Escherichia coli, ATCC25922, ESBL −ve E. coli ATCC25922; read-out: MIC.
The subject of assay [3] is extended spectrum β lactamase (ESBL) SHV18 producing Klebsiella pneumoniae. The experiment in a line: MIC by broth micro-dilution (CLSI), ESBL SHV18 producing K. pneumoniae. In kind it is cell-based. To be noted: Klebsiella pneumoniae, ATCC700603, 22 h, ESBL +ve (SHV-18) K. pneumoniae ATCC700603; read-out: MIC.
The test system of assay [4] is carbapenemase producing K. pneumoniae. The experiment in a line: MIC by broth micro-dilution (CLSI), carbapenemase producing K. pneumoniae. In kind it is cell-based, Klebsiella pneumoniae. The following applies: Klebsiella pneumoniae, ATCCBAA1705, KPC-2 K. pneumoniae ATCC BAA-1705; read-out: MIC.
The test system of assay [5] is carbapenem sensitive Pseudomonas aeruginosa. The assay can be described thus: MIC by broth micro-dilution (CLSI), carbapenem sensitive P. aeruginosa. It is filed as cell-based. To be noted: Pseudomonas aeruginosa, ATCC27853, Meropenem susceptible P. aeruginosa ATCC27853; read-out: MIC.

SMILES strings stand for the structures. Converted amounts (≈) assume the structure as drawn. Some results are limits rather than exact numbers.

For `C[C@H]([C@H]1C(=O)N2C(C(=O)O)=C(SC3CN[C@H](C(=O)N4CC[C@@H](N)C4)C3)[C@H](C)[C@H]12)n1cc(CO)nn1` (stereo partly shown) [Example 167], the MIC in assay [1] came to 2 µg/mL (≈ 3.96 µM); in assay [2], 4 µg/mL (≈ 7.91 µM); in assay [3] it was 4 µg/mL (≈ 7.91 µM); in assay [4], 4 µg/mL (≈ 7.91 µM); in assay [5] it was 32 µg/mL (≈ 63.3 µM).

Regarding `CNCC(=O)N[C@H](C)[C@H]1C(=O)N2C(C(=O)O)=C(S[C@@H]3CN[C@H](C(=O)N4CCNCC4)C3)[C@H](C)[C@H]12` [Example 168], the MIC turned out to be 16 µg/mL (≈ 32.3 µM) in assay [1]; 1 µg/mL (≈ 2.02 µM) in assay [2]; 2 µg/mL (≈ 4.04 µM) in assay [3]; 2 µg/mL (≈ 4.04 µM) in assay [4]; 2 µg/mL (≈ 4.04 µM) in assay [5].

`CNCC(=O)N[C@H](C)[C@H]1C(=O)N2C(C(=O)O)=C(S[C@@H]3CN[C@H](CNS(N)(=O)=O)C3)[C@H](C)[C@H]12` [Example 169]: the MIC in assay [1] was found to be 8 µg/mL (≈ 16.3 µM); in assay [2], 1 µg/mL (≈ 2.04 µM); in assay [3], 16 µg/mL (≈ 32.6 µM); in assay [4], 2 µg/mL (≈ 4.08 µM); in assay [5], 4 µg/mL (≈ 8.15 µM).

With `C[C@@H](NC(=O)C(F)F)[C@H]1C(=O)N2C(C(=O)O)=C(S[C@@H]3CN[C@H](C(=O)N4CC[C@H](NC5CC5)C4)C3)[C@H](C)[C@H]12` [Example 170], the MIC was found to be 2 µg/mL (≈ 3.69 µM) in assay [1]; 1 µg/mL (≈ 1.85 µM) in assay [2]; 4 µg/mL (≈ 7.39 µM) in assay [3]; 8 µg/mL (≈ 14.8 µM) in assay [4]; 32 µg/mL (≈ 59.1 µM) in assay [5].

In the case of `CNCCN(CC#N)C(=O)[C@@H]1C[C@H](SC2=C(C(=O)O)N3C(=O)[C@H]([C@@H](C)NC(=O)C(F)F)[C@H]3[C@H]2C)CN1` [Example 171], the minimal inhibitory concentration (MIC) in assay [1] is 2 µg/mL (≈ 3.78 µM); in assay [2] it was 4 µg/mL (≈ 7.57 µM); in assay [3] it was 128 µg/mL (≈ 242 µM); in assay [4] it was 128 µg/mL (≈ 242 µM); in assay [5], greater than 128 µg/mL.

Take `C[C@@H](NC(=O)C(F)F)[C@H]1C(=O)N2C(C(=O)O)=C(S[C@@H]3CN[C@H](C(=O)N(C)[C@@H]4CN[C@H](C(=O)N(C)C)C4)C3)[C@H](C)[C@H]12` [Example 172]: the minimal inhibitory concentration (MIC) in assay [1] turned out to be 4 µg/mL (≈ 6.82 µM); in assay [2], 1 µg/mL (≈ 1.7 µM); in assay [3], 8 µg/mL (≈ 13.6 µM); in assay [4], 8 µg/mL (≈ 13.6 µM); in assay [5] it was 64 µg/mL (≈ 109 µM).

Consider `C[C@@H](NC(=O)C(F)F)[C@H]1C(=O)N2C(C(=O)O)=C(S[C@@H]3CN[C@H](C(=O)N(C)CCC(=O)N4CC[C@H](N)C4)C3)[C@H](C)[C@H]12` [Example 173], for which the MIC in assay [1] was determined as 4 µg/mL (≈ 6.82 µM); in assay [2] it was 2 µg/mL (≈ 3.41 µM); in assay [3], 16 µg/mL (≈ 27.3 µM); in assay [4] it was 8 µg/mL (≈ 13.6 µM); in assay [5] it was 16 µg/mL (≈ 27.3 µM).

For `C[C@@H](NC(=O)C(F)F)[C@H]1C(=O)N2C(C(=O)O)=C(S[C@@H]3CN[C@H](C(=O)N(C)CCC(=O)N4CCCNCC4)C3)[C@H](C)[C@H]12` [Example 174], the MIC in assay [1] is 4 µg/mL (≈ 6.66 µM); in assay [2], 2 µg/mL (≈ 3.33 µM); in assay [3] it was 16 µg/mL (≈ 26.6 µM); in assay [4], 8 µg/mL (≈ 13.3 µM); in assay [5] it was 32 µg/mL (≈ 53.3 µM).

`C[C@@H](NC(=O)C(F)F)[C@H]1C(=O)N2C(C(=O)O)=C(S[C@@H]3CN[C@H](C(=O)N4CC[C@H](NCC#N)C4)C3)[C@H](C)[C@H]12` [Example 175]: the MIC in assay [1] is 2 µg/mL (≈ 3.7 µM); in assay [2], 1 µg/mL (≈ 1.85 µM); in assay [3] it was 2 µg/mL (≈ 3.7 µM); in assay [4] it was 4 µg/mL (≈ 7.4 µM); in assay [5], 16 µg/mL (≈ 29.6 µM).

As to `C[C@@H](NC(=O)C(F)F)[C@H]1C(=O)N2C(C(=O)O)=C(S[C@@H]3CN[C@H](C(=O)N4CC[C@H](n5cc(CN)nn5)C4)C3)[C@H](C)[C@H]12` [Example 176], the MIC came out at 2 µg/mL (≈ 3.43 µM) in assay [1]; 1 µg/mL (≈ 1.72 µM) in assay [2]; 4 µg/mL (≈ 6.87 µM) in assay [3]; 8 µg/mL (≈ 13.7 µM) in assay [4]; 8 µg/mL (≈ 13.7 µM) in assay [5].

For `C[C@H]([C@H]1C(=O)N2C(C(=O)O)=C(SC3CN[C@H](C(=O)N(C)C)C3)[C@H](C)[C@H]12)n1cc(CN)nn1` (stereo partly shown) [Example 177], the MIC in assay [1] turned out to be 8 µg/mL (≈ 17.3 µM); in assay [2], 2 µg/mL (≈ 4.31 µM); in assay [3] it was 2 µg/mL (≈ 4.31 µM); in assay [4], 2 µg/mL (≈ 4.31 µM); in assay [5] it was 32 µg/mL (≈ 69 µM).

For the molecule `CNCC(=O)N[C@H](C)[C@H]1C(=O)N2C(C(=O)O)=C(S[C@@H]3CN[C@H](C(=O)N4CC[C@H](n5cc(CN)nn5)C4)C3)[C@H](C)[C@H]12` [Example 178], the MIC was 32 µg/mL (≈ 55.6 µM) in assay [1]; 2 µg/mL (≈ 3.47 µM) in assay [2]; 4 µg/mL (≈ 6.95 µM) in assay [3]; 4 µg/mL (≈ 6.95 µM) in assay [4]; 4 µg/mL (≈ 6.95 µM) in assay [5].

Regarding `CNCC(=O)N[C@H](C)[C@H]1C(=O)N2C(C(=O)O)=C(S[C@@H]3CN[C@H](C(=O)N4CC[C@@H](NC)C4)C3)[C@H](C)[C@H]12` [Example 179], the MIC in assay [1] turned out to be 128 µg/mL (≈ 252 µM); in assay [2], 2 µg/mL (≈ 3.93 µM); in assay [3] it was 16 µg/mL (≈ 31.5 µM); in assay [4], 8 µg/mL (≈ 15.7 µM); in assay [5] it was 16 µg/mL (≈ 31.5 µM).

As for `C[C@@H](NC(=O)CN(C)C)[C@H]1C(=O)N2C(C(=O)O)=C(S[C@@H]3CN[C@H](C(=O)N4CC[C@@H](N)C4)C3)[C@H](C)[C@H]12` [Example 180], the MIC in assay [1] worked out at 128 µg/mL (≈ 252 µM); in assay [2], 4 µg/mL (≈ 7.86 µM); in assay [3] it was 32 µg/mL (≈ 62.9 µM); in assay [4] it was 32 µg/mL (≈ 62.9 µM); in assay [5], 16 µg/mL (≈ 31.5 µM).

Regarding `CNCC(=O)N[C@H](C)[C@H]1C(=O)N2C(C(=O)O)=C(S[C@@H]3CN[C@H](Cn4cc(CN)nn4)C3)[C@H](C)[C@H]12` [Example 181], the MIC in assay [1] was greater than 128 µg/mL; in assay [2], 8 µg/mL (≈ 16.2 µM); in assay [3], greater than 128 µg/mL; in assay [4], 64 µg/mL (≈ 130 µM); in assay [5], 128 µg/mL (≈ 260 µM).

Turning to `C[C@@H](NC(=O)CN(C)C)[C@H]1C(=O)N2C(C(=O)O)=C(S[C@@H]3CN[C@H](C(=O)N4CCNCC4)C3)[C@H](C)[C@H]12` [Example 182], the MIC in assay [1] came to 128 µg/mL (≈ 252 µM); in assay [2], 8 µg/mL (≈ 15.7 µM); in assay [3], 16 µg/mL (≈ 31.5 µM); in assay [4] it was 16 µg/mL (≈ 31.5 µM); in assay [5], 8 µg/mL (≈ 15.7 µM).

Consider `C[C@@H](NC(=O)C(F)F)[C@H]1C(=O)N2C(C(=O)O)=C(S[C@@H]3CN[C@H](C(=O)N4C[C@@H](N)C[C@H]4CN)C3)[C@H](C)[C@H]12` [Example 183], for which the MIC turned out to be 8 µg/mL (≈ 15.1 µM) in assay [1]; 2 µg/mL (≈ 3.77 µM) in assay [2]; 32 µg/mL (≈ 60.3 µM) in assay [3]; 16 µg/mL (≈ 30.2 µM) in assay [4]; 64 µg/mL (≈ 121 µM) in assay [5].

With `C[C@@H](NC(=O)C(F)F)[C@H]1C(=O)N2C(C(=O)O)=C(S[C@@H]3CN[C@H](C(=O)N4CC[C@H](NC=N)C4)C3)[C@H](C)[C@H]12` [Example 184], the MIC in assay [1] is 2 µg/mL (≈ 3.78 µM); in assay [2], 0.5 µg/mL (≈ 0.946 µM); in assay [3], 4 µg/mL (≈ 7.57 µM); in assay [4], 8 µg/mL (≈ 15.1 µM); in assay [5] it was 4 µg/mL (≈ 7.57 µM).

Regarding `CNC[C@@H]1C[C@H](N)CN1C(=O)[C@@H]1C[C@H](SC2=C(C(=O)O)N3C(=O)[C@H]([C@@H](C)NC(=O)C(F)F)[C@H]3[C@H]2C)CN1` [Example 185], the MIC in assay [1] is 2 µg/mL (≈ 3.67 µM); in assay [2], 2 µg/mL (≈ 3.67 µM); in assay [3] it was 64 µg/mL (≈ 118 µM); in assay [4], 16 µg/mL (≈ 29.4 µM); in assay [5], 64 µg/mL (≈ 118 µM).

With `C[C@@H](NC(=O)C(F)F)[C@H]1C(=O)N2C(C(=O)O)=C(S[C@@H]3CN[C@H](C(=O)N4C[C@@H](N)C[C@H]4CO)C3)[C@H](C)[C@H]12` [Example 186], the MIC worked out at 4 µg/mL (≈ 7.52 µM) in assay [1]; 0.5 µg/mL (≈ 0.941 µM) in assay [2]; 4 µg/mL (≈ 7.52 µM) in assay [3]; 4 µg/mL (≈ 7.52 µM) in assay [4]; 8 µg/mL (≈ 15 µM) in assay [5].

As a reminder, the MIC is the lowest concentration that inhibits growth of the organism.
